Data: ChEMBL document CHEMBL5512660, “Synthesis of LAVR-289, a new [(Z)-3-(acetoxymethyl)-4-(2,4-diaminopyrimidin-6-yl)oxy-but-2-enyl]phosphonic acid prodrug with pronounced antiviral activity against DNA viruses” (Eur J Med Chem, 2024)

How the values were obtained:
Human alphaherpesvirus 3 [1] = assay: Antiviral activity against thymidine-kinase expressing Varicella zoster virus wild type strain YS infected in human HEL cells assessed as reduction in plaque formation measured after 3 days; assay type: functional, organism-based; details: Human alphaherpesvirus 3, YS, 72 h
Human alphaherpesvirus 3 [2] = assay: Antiviral activity against thymidine-kinase deficient acyclovir-resistant Varicella zoster virus strain YS/R infected in human HEL cells assessed as reduction in plaque formation measured after 3 days; assay type: functional, organism-based; details: Human alphaherpesvirus 3, YS/R, 72 h
Human alphaherpesvirus 3 [3] = assay: Antiviral activity against thymidine-kinase deficient acyclovir-resistant Varicella zoster virus strain 07/1 infected in human HEL cells assessed as reduction in plaque formation measured after 3 days; assay type: functional, organism-based; details: Human alphaherpesvirus 3, 07/1, HEL, 72 h
Cytomegalovirus [4] = assay: Antiviral activity against human cytomegalovirus strain AD-169 infected in human HEL cells assessed as reduction in virus-induced cytopathic effect measured after 3 days; assay type: functional, organism-based; details: Human betaherpesvirus 5, AD-169, HEL, 72 h
Human alphaherpesvirus 1 [5] = assay: Antiviral activity against thymidine-kinase expressing human herpes virus type 1 KOS infected in human HEL cells assessed as reduction in plaque formation measured after 3 days; assay type: functional, organism-based; details: Human alphaherpesvirus 1, KOS, 72 h
[6] = Cytostatic activity against human HEL cells assessed as reduction in cell growth measured after 24 hrs; assay type: toxicity, cell-based
Human alphaherpesvirus 1 [7] = assay: Antiviral activity against thymidine-kinase deficient acyclovir-resistant human herpes virus type 1 infected in human HEL cells assessed as reduction in plaque formation measured after 3 days; assay type: functional, organism-based; details: Human alphaherpesvirus 1, HEL, 72 h
Vaccinia virus = assay: Antiviral activity against Vaccinia virus […] infected in human HEL cells assessed as reduction in plaque formation measured after 3 days; assay type: functional, organism-based; details: Orthopoxvirus vaccinia, 72 h
Human alphaherpesvirus 2 = assay: Antiviral activity against human herpes virus type 2 strain 07/1 infected in human HEL cells assessed as reduction in plaque formation measured after 3 days; assay type: functional, organism-based; details: Human alphaherpesvirus 2, 07/1, HEL, 72 h
Human alphaherpesvirus 3 [8] = assay: Antiviral activity against thymidine-kinase expressing Varicella zoster virus wild type strain OKA infected in human HEL cells assessed as reduction in plaque formation measured after 3 days; assay type: functional, organism-based; details: Human alphaherpesvirus 3, OKA, 72 h
Cytomegalovirus [9] = assay: Antiviral activity against human cytomegalovirus strain Davis infected in human HEL cells assessed as reduction in virus-induced cytopathic effect measured after 3 days; assay type: functional, organism-based; details: Human betaherpesvirus 5, Davis, 72 h
[10] = Cytotoxicity against human HEL cells assessed as microscopically detectable alterations in cell morphology measured after 24 hrs; assay type: toxicity, cell-based; details: read-out: MCC50
[11] = Selectivity index, ratio of CC50 for human HEL cells to EC50 for Vaccinia virus […]; assay type: toxicity; details: read-out: Selectivity Index
[12] = Selectivity index, ratio of CC50 for human HEL cells to EC50 for thymidine-kinase deficient acyclovir-resistant Varicella zoster virus; assay type: toxicity; details: read-out: Selectivity Index
[13] = Selectivity index, ratio of CC50 for human HEL cells to EC50 for thymidine-kinase deficient acyclovir-resistant human herpes virus type 1; assay type: toxicity; details: read-out: Selectivity Index

| SMILES | EC50 (Human alphaherpesvirus 3 [1]) [nM] | EC50 (Human alphaherpesvirus 3 [2]) [nM] | EC50 (Human alphaherpesvirus 3 [3]) [nM] | EC50 (Cytomegalovirus [4]) [nM] | EC50 (Human alphaherpesvirus 1 [5]) [nM] | CC50 at 24 h [6] [nM] | EC50 (Human alphaherpesvirus 1 [7]) [nM] | EC50 (Vaccinia virus) [nM] | EC50 (Human alphaherpesvirus 2) [nM] | EC50 (Human alphaherpesvirus 3 [8]) [nM] | EC50 (Cytomegalovirus [9]) [nM] | MCC at 24 h [10] [µM] | selectivity ratio [11] | selectivity ratio [12] | selectivity ratio [13] |
| --- | --- | --- | --- | --- | --- | --- | --- | --- | --- | --- | --- | --- | --- | --- | --- |
| CC(=O)OCC(=CCP(=O)(OCOC(=O)C(C)(C)C)OCOC(=O)C(C)(C)C)COc1cc(N)nc(N)n1 | 360 | 180 | 120 | 8560 | 600 | 2030 | 600 | 2900 | 1100 | 140 | 4060 | 100 | – | – | – |
| CC(=O)OC/C(=C\CP(=O)(OCOC(=O)OC(C)C)OCOC(=O)OC(C)C)COc1cc(N)nc(N)n1 | – | – | 220 | – | 600 | 15400 | 400 | 4100 | 350 | 90 | – | > 100 | – | – | – |
| CCCCCCCCCCCCCCCCOCCCOP(=O)(C/C=C/COc1cc(N)nc(N)n1)OCOC(=O)OC(C)C (configuration not stated) | – | – | 240 | 7080 | 39000 | 14500 | 42000 | – | 39000 | 180 | 7260 | 100 | – | – | – |
| Nc1ccn(C[C@@H](CO)OCP(=O)(O)O)c(=O)n1 [CIDOFOVIR ANHYDROUS] | – | – | – | 730 | – | 64000 | 3800 | 29000 | – | – | – | > 350 | 2 | – | – |
| Nc1nc2c(ncn2COCCO)c(=O)[nH]1 [ACYCLOVIR] | – | 66000 | – | – | – | 470000 | – | > 250000 | – | – | – | > 300 | – | – | – |
| CC(C)OC(=O)OCOP(=O)(C/C=C/COc1cc(N)nc(N)n1)OCOC(=O)OC(C)C | – | – | 1250 | 44700 | 3750 | > 100000 | 5750 | – | 1800 | 860 | 36600 | > 100 | – | – | – |
| CCCCCCCCCCCCCCCCOCCCOP(=O)(C/C=C(\COC(C)=O)COc1cc(N)nc(N)n1)OCOC(=O)OC(C)C (configuration not stated) | – | – | 18 | 21 | 430 | 2320 | 9 | 50 | 15 | 4 | – | 100 | 46 | 129 | 273 |
| CC(C)(C)C(=O)OCOP(=O)(C/C=C/COc1cc(N)nc(N)n1)OCOC(=O)C(C)(C)C | 2400 | 1700 | 1400 | 44700 | 13400 | 5100 | 13400 | 32500 | 13400 | 800 | 44700 | > 100 | – | – | – |
| O=c1[nH]c(=O)n([C@H]2C[C@H](O)[C@@H](CO)O2)cc1/C=C/Br [BRIVUDINE] | – | 85000 | – | – | – | > 150000 | – | 5800 | – | 9 | – | > 150 | – | – | – |
| Nc1nc2c(ncn2COC(CO)CO)c(=O)[nH]1 [GANCICLOVIR] | – | – | – | 7500 | – | 130000 | – | > 100000 | 60 | – | – | > 350 | – | – | – |
